{"source": "patent US12090140B2", "about": "“Non-sedating dexmedetomidine treatment regimens” (priority 2023, dated 2024)", "key": {"[1]": {"settings": "pH 7.4; cited from earlier work"}, "[2]": {"test_system": "subjects suffering from schizophrenia", "settings": "for RASS values after infusion start, individual patients: IV infusion, treatment arm", "source_text": "Another Key Objective of the study was to determine the reduction in the level of agitation, as determined by their PEC score, at the doses to achieve a RASS of −1.\nPatients 5, 7, 8 and 9 received placebo."}, "[3]": {"test_system": "plasma proteins", "settings": "in vitro; cited from earlier work"}, "[4]": {"assay": "clinical", "settings": "human, in vivo, iv", "description": "(§1) Mean infusion rate is 0.36 mcg/kg/hr with the maximum rate ranging from about 0.2 mcg/kg/hr to about 0.6 mcg/kg/hr (see FIGS. 18 to 20)."}, "[5]": {"test_system": "agitation in subjects suffering from schizophrenia"}, "[6]": {"settings": "IV infusion", "description": "as §1"}, "[7]": {"settings": "cited from earlier work; for Mean clearance relative to subjects with normal hepatic function: IV infusion of 0.6 meg/kg over 10 minutes"}, "[8]": {"test_system": "adult patients and healthy adult subjects", "settings": "cited from earlier work"}, "[9]": {"settings": "IV infusion from 0.2 mcg/kg/hr, rising 0.1 mcg/kg/hr every 30 minutes"}}, "note": "“And” between values parts separate entries of the source, which are not always exact repeats. Equal entries are not always repeated. Structures can show the parent of a compound that is named as a salt. Where two headings read alike, the source gives them in different places.", "data": [{"smiles": "Cc1cccc([C@H](C)c2cnc[nH]2)c1C", "note": "[Dexmedetomidine hydrochloride, 4-[(1S)-1-(2,3-dimethylphenyl)ethyl]-1H-imidazole hydrochloride]", "values": [{"measurement": "Partition coefficient in octanol/water", "setting": "[1]", "result": 2.89}, {"measurement": "RASS values after infusion start, individual patients", "setting": "[2]; 15 minutes, hydrochloride", "result": "−2 and −1"}, {"measurement": "RASS values after infusion start, individual patients", "setting": "[2]; 30 minutes", "result": 0}, {"measurement": "RASS values after infusion start, individual patients", "setting": "[2]; 75 minutes", "result": "−1"}, {"measurement": "RASS values after infusion start, individual patients", "setting": "[2]; 90 minutes", "result": 0}, {"measurement": "Patients achieving a RASS score of at least −1", "setting": "[2]; [9]", "result": "9 out of 10"}, {"measurement": "RASS values after infusion start, individual patients", "setting": "[2]; […]", "result": 0}, {"measurement": "Displacement of phenytoin, warfarin, ibuprofen, propranolol, theophylline and digoxin", "setting": "[3]", "result": "none of these compounds appeared to be significantly displaced"}, {"measurement": "Cmax", "setting": "[4]", "result": 0.022, "unit": "ng/mL"}, {"measurement": "Patients with agitation reduced to a minimum (PEC score of 7 or below)", "setting": "[5]; [9]", "result": "9 out of 10"}, {"measurement": "Subjects with >=50% reduction in PEC score", "setting": "[5]; IV route", "result": "7 of 10"}, {"measurement": "Subjects with a 40% reduction in PEC score at a Cmax of =<72 μg/mL", "setting": "[5]; IV route", "result": "5 of 10"}, {"measurement": "Plasma level concentration", "setting": "[6]; Patient 1 (treatment), 15 min", "result": 0.02245, "unit": "ng/mL"}, {"measurement": "Plasma level concentration", "setting": "[6]; Patient 1 (treatment), 30 min", "result": 0.01472, "unit": "ng/mL"}, {"measurement": "Plasma level concentration", "setting": "[6]; Patient 4 (treatment), 90 min", "result": 0.0443, "unit": "ng/mL"}, {"measurement": "Plasma level concentration", "setting": "[6]; Patient 11 (treatment), 15 min", "result": 0.04101, "unit": "ng/mL"}, {"measurement": "Plasma level concentration", "setting": "[6]; Patient 11 (treatment), 30 min", "result": 0.06291, "unit": "ng/mL"}, {"measurement": "Plasma level concentration", "setting": "[6]; Patient 11 (treatment), 45 min", "result": 0.12407, "unit": "ng/mL"}, {"measurement": "Plasma level concentration", "setting": "[6]; Patient 11 (treatment), 60 min", "result": 0.15047, "unit": "ng/mL"}, {"measurement": "Plasma level concentration", "setting": "[6]; Patient 12 (treatment), 30 min", "result": 0.04487, "unit": "ng/mL"}, {"measurement": "Plasma level concentration", "setting": "[6]; Patient 12 (treatment), 45 min", "result": 0.05051, "unit": "ng/mL"}, {"measurement": "Plasma level concentration", "setting": "[6]; Patient 12 (treatment), 60 min", "result": 0.1086, "unit": "ng/mL"}, {"measurement": "Plasma level concentration", "setting": "[6]; Patient 12 (treatment), 75 min", "result": 0.15854, "unit": "ng/mL"}, {"measurement": "Plasma level concentration", "setting": "[6]; Patient 12 (treatment), 90 min", "result": 0.23783, "unit": "ng/mL"}, {"measurement": "Plasma level concentration", "setting": "[6]; Patient 14 (treatment), 30 min", "result": 0.05266, "unit": "ng/mL"}, {"measurement": "Plasma level concentration", "setting": "[6]; Patient 14 (treatment), 45 min", "result": 0.04653, "unit": "ng/mL"}, {"measurement": "Plasma level concentration", "setting": "[6]; Patient 14 (treatment), 60 min", "result": 0.4063, "unit": "ng/mL"}, {"measurement": "Plasma level concentration", "setting": "[6]; Patient 16 (treatment), 15 min", "result": 0.00256, "unit": "ng/mL"}, {"measurement": "Plasma level concentration", "setting": "[6]; Patient 16 (treatment), 30 min", "result": 0.01559, "unit": "ng/mL"}, {"measurement": "Plasma level concentration", "setting": "[6]; Patient 16 (treatment), 45 min", "result": 0.04117, "unit": "ng/mL"}, {"measurement": "Plasma level concentration", "setting": "[6]; Patient 16 (treatment), 60 min", "result": 0.06788, "unit": "ng/mL"}, {"measurement": "Plasma level concentration", "setting": "[6]; Patient 16 (treatment), 75 min", "result": 0.07226, "unit": "ng/mL"}, {"measurement": "Plasma level concentration", "setting": "[6]; Patient 17 (treatment), 15 min", "result": 0.01587, "unit": "ng/mL"}, {"measurement": "Plasma level concentration", "setting": "[6]; Patient 17 (treatment), 45 min", "result": 0.03993, "unit": "ng/mL"}, {"measurement": "Plasma level concentration", "setting": "[6]; Patient 18 (treatment), 15 min", "result": 0.04836, "unit": "ng/mL"}, {"measurement": "Plasma level concentration", "setting": "[6]; Patient 18 (treatment), 30 min", "result": 0.05453, "unit": "ng/mL"}]}, {"smiles": "Cc1cccc([C@H](C)c2c[nH]cn2)c1C", "note": "[intravenous dexmedetomidine]", "values": [{"measurement": "Effect of sex on pharmacokinetics", "setting": "[7]; intravenous", "result": "no observed difference"}, {"measurement": "Mean clearance relative to subjects with normal hepatic function", "setting": "[7]; mild hepatic impairment", "result": 74, "unit": "%"}, {"measurement": "Mean clearance for free drug relative to subjects with normal hepatic function", "setting": "[7]; mild hepatic impairment", "result": 59, "unit": "%"}, {"measurement": "Mean clearance relative to subjects with normal hepatic function", "setting": "[7]; moderate hepatic impairment", "result": 64, "unit": "%"}, {"measurement": "Mean clearance for free drug relative to subjects with normal hepatic function", "setting": "[7]; moderate hepatic impairment", "result": 51, "unit": "%"}, {"measurement": "Mean clearance relative to subjects with normal hepatic function", "setting": "[7]; severe hepatic impairment", "result": 53, "unit": "%"}, {"measurement": "Mean clearance for free drug relative to subjects with normal hepatic function", "setting": "[7]; severe hepatic impairment", "result": 32, "unit": "%"}, {"measurement": "Effects of overdose", "setting": "[8]; IV 2 mcg/kg loading dose over 10 minutes, two patients", "result": "bradycardia and/or hypotension"}, {"measurement": "Maximum blood concentration in tolerability study", "setting": "[8]; IV doses at and above 0.2 to 0.7 mcg/kg/hour, healthy adult subjects", "result": "approximately 13 times the upper boundary of the therapeutic range"}, {"measurement": "Most notable effects at the highest doses", "setting": "[8]; IV tolerability study, two subjects", "result": "first degree atrioventricular block and second-degree heart block"}, {"measurement": "Adult patients with at least 1 event related to withdrawal, n (%)", "setting": "[8]; IV up to 7 days, within the first 24 hours after discontinuing", "result": "12 (5%)"}, {"measurement": "Adult patients with at least 1 event related to withdrawal, n (%)", "setting": "[8]; IV, 24 to 48 hours after discontinuing", "result": "7 (3%)"}, {"measurement": "Frequency of tachycardia and hypertension requiring intervention", "setting": "[8]; IV, 48 hours following discontinuation", "result": "< 5", "unit": "%"}]}]}
